Values after ≈ are worked out from the molar mass of the structure shown.

Experimental findings from PubChem BioAssay AID1996 are described below.

For the data set the following is noted: buffer; pH 7.4; 200.0 µM.
`NC(=O)c1c(NC(=O)c2ccncc2)sc2c1CCCCCC2` returned a solubility (kinetic) of 7 µg/mL (≈ 21.2 µM). With `O=C(NN1CCOCC1)c1cccc(Br)c1`, the solubility (kinetic) was more than 42.8 µg/mL.

Take `O=C(CCS(=O)(=O)c1ccccc1)Nc1ccc(S(=O)(=O)Nc2nccs2)cc1`: the kinetic solubility stood at 23.6 µg/mL (≈ 52.3 µM). Under `COc1ccc(C(=O)COC(=O)c2cnc(C)cn2)c(OC)c1` stands more than 47.4 µg/mL; under `COc1cccc(NC(=O)C(C)N2C(=O)c3ccccc3C2=O)c1` (stereo not drawn), 27.3 µg/mL (≈ 84.2 µM); under `O=C(c1ccc(-c2ccc([N+](=O)[O-])cc2)o1)N1CCCCCCC1`, 9.1 µg/mL (≈ 27.7 µM). Under `CCCN(CCC)C(=O)Nc1ccc(F)cc1F` stands more than 38.4 µg/mL; under `O=C(O)CCNC(=O)c1ccccc1`, more than 29 µg/mL; under `CSc1ncc(CO)n1Cc1ccccc1`, more than 35.1 µg/mL. Under `Cc1ccccc1Nc1ccc([N+](=O)[O-])cn1` stands more than 34.4 µg/mL; under `O=[N+]([O-])c1c(NCCCO)cc(N2CCCCCC2)c2nonc12`, 28.6 µg/mL (≈ 85.3 µM). `COc1cccc(CNC(=O)CC2Sc3ccccc3NC2=O)c1` (stereo not drawn) yielded a solubility (kinetic) of 1.5 µg/mL (≈ 4.38 µM). Take `Cl.NCc1cc2c3c(c1)CCCN3CCC2`: the kinetic solubility is more than 41.3 µg/mL.

For the molecule `Nn1c(SCC(=O)NC2CCS(=O)(=O)C2)nnc1-c1ccco1` (stereo not drawn), the solubility (kinetic) was more than 53.6 µg/mL.

In turn, `COP(=O)(OC)C(NC(=O)Nc1ccccc1)c1ccccc1` (stereo not drawn) gave a kinetic solubility of 43.9 µg/mL (≈ 131 µM).

In turn, `Cc1ccc(Cn2c(N)nc3ccccc32)cc1` displayed a kinetic solubility of 23.8 µg/mL (≈ 100 µM).

`Cc1nc(N)sc1-c1csc(Nc2cccc(O)c2)n1` returned a kinetic solubility of 34.1 µg/mL (≈ 112 µM). The result for `COC(=O)c1ccc(OCC(=O)NCCC2=CCCCC2)c(OC)c1` reads more than 52.1 µg/mL.

Consider `Cc1cc2c(cn1)C(CCC#N)(CCC#N)c1ccccc1-2`, for which the kinetic solubility is more than 43.1 µg/mL. As for `O=C1N(Cc2ccccc2)c2ccccc2C12OCCO2`, the solubility (kinetic) was 28.9 µg/mL (≈ 103 µM). `O=C(Nc1ccc(Cl)c(Cl)c1)c1ccccc1NC(=O)C1CC=CCC1C(=O)O` (stereo not drawn) had a kinetic solubility of more than 65 µg/mL. Under `COc1ccc(C2(NC(C)=O)CCN(Cc3cccnc3)CC2)cc1` stands 40.9 µg/mL (≈ 120 µM); under `CCOC(=O)C1CCN(Cc2cccc(Oc3ccccc3)c2)CC1`, 17 µg/mL (≈ 50.1 µM); under `Cc1cccc(CN2CCN(C(=O)c3cccc4ccccc34)CC2)c1`, 38.6 µg/mL (≈ 112 µM).

In turn, `OC(c1nc2ccccc2[nH]1)C(O)c1nc2ccccc2[nH]1` (stereo not drawn) had a solubility (kinetic) of more than 44.1 µg/mL. Regarding `O=[N+]([O-])c1ccc(Sc2cccc3cccnc23)c2cccnc12`, the kinetic solubility was less than 0.2 µg/mL. Under `Cc1nc(-c2ccc(C(=O)Nc3cccc(F)c3)cc2)cs1` stands less than 0.3 µg/mL; under `O=C(Nc1cnccn1)c1ccc(F)cc1Cl`, more than 37.7 µg/mL. Under `Cc1ccc(C(=O)O)cc1N1CCCC1=O` stands more than 32.9 µg/mL.

`CN(C)c1ccc(SC#N)cc1` returned a kinetic solubility of 4.2 µg/mL (≈ 23.6 µM).

With `CCn1cc(S(=O)(=O)N2CCCC2)cn1`, the solubility (kinetic) was more than 34.4 µg/mL. The result for `Cc1ccc(NC2=NCCCS2)cc1Cl` reads 28.4 µg/mL (≈ 118 µM); that for `CCOC(=O)C1CCN(CCC(=O)Nc2cc(C)ccc2C)CC1`, more than 49.9 µg/mL; that for `O=S1(=O)CCN2C=C(Cl)C=C(Cl)C2=N1`, more than 38 µg/mL.

`COc1ccc(C)cc1NC(=O)CN(C)C1CCCCC1` yielded a kinetic solubility of 30.9 µg/mL (≈ 106 µM). Under `Cc1cccc(NC(=O)CN(C)C(=O)C2CC2)c1C` stands more than 39.1 µg/mL. Under `Cc1cccc(C(=O)NC2CC3CCC(C2)N3C)c1` (stereo not drawn) stands more than 38.8 µg/mL; under `CCOC(=O)c1sc(-c2ccc(Cl)cc2)nc1O`, 40.8 µg/mL (≈ 144 µM). Under `O=[N+]([O-])c1ccc(-c2cnc3ccccc3n2)cc1` stands 0.6 µg/mL (≈ 2.39 µM); under `CCOc1ccccc1NC(=O)C(=O)CC(=O)c1ccc(OC)cc1`, 6.1 µg/mL (≈ 17.9 µM); under `Cc1cc2oc(=O)cc(CN(C)Cc3ccccc3Cl)c2cc1C`, less than 0.7 µg/mL. Molecule `COc1ccccc1N(CC(=O)N1CCOCC1)S(C)(=O)=O` returned a solubility (kinetic) of more than 49.3 µg/mL. Under `COc1ccc2oc(C(=O)OCC(=O)Nc3ccc(C(=O)N(C)C)cc3)c(C)c2c1` stands 58.7 µg/mL (≈ 143 µM); under `CCOC(=O)C1CCCN(CC(=O)Nc2cc(C)cc(C)c2)C1` (stereo not drawn), 29.3 µg/mL (≈ 92 µM). Under `O=C(NC(=S)N1CCN(C2CCCCC2)CC1)c1ccccc1` stands more than 49.7 µg/mL. Turning to `Cc1ccccc1OCC(=O)OCC(=O)c1ccc[nH]1`, the solubility (kinetic) is more than 41 µg/mL. The result for `COC(=O)C(c1ccccc1)C1(O)CC(C)N(C)CC1C` (stereo not drawn) reads more than 43.7 µg/mL; that for `Cc1cc(C)cc(NS(=O)(=O)c2csc(C(N)=O)c2)c1`, more than 46.6 µg/mL. Under `O=C(NCCCCc1ccccc1)c1ccccc1F` stands more than 40.7 µg/mL; under `Cc1ccc(N2Cc3ccccc3C2=O)cc1`, 7.8 µg/mL (≈ 34.9 µM); under `COc1cccc(CNC(=S)NC2CC2)c1`, 35.2 µg/mL (≈ 149 µM). Under `O=C(CNC(=O)C1CCCCC1)Nc1ccc(F)c(Cl)c1` stands 8.2 µg/mL (≈ 26.2 µM); under `Cc1cccc(C(=O)NCC(=O)OCC(=O)c2ccc(Br)s2)c1`, more than 59.4 µg/mL.
